In US20260159525A1, “TRICYCLIC HETEROCYCLES” (Merck Patent GmbH, priority 2021, published 2026):

What was measured:
Assay type in all cases: cell-based
[1] = test system: NCI-H226 cells; experiment: Viability assay in NCI-H226 (Yap-dependent) cells, CyQUANT; settings: Homo sapiens, NCI-H226 YAP dependent cell line, 96 hour incubation, group symbols
Protocol: (§1) Viability Assay in NCI-H226 (Yap-Dependent) and SW620 Yap KO (Yap Independent) Cells
(§2) The ability of YAP-TEAD inhibitors to inhibit tumor cell growth was evaluated using two different cell lines: NCI-H226, which is a YAP dependent cell line, and SW620 cells, where YAP and TAZ were knocked out using CRISPR to generate a YAP independent cell line.
(§3) For the assay, cells were treated in duplicates with the test compounds in a 10-point dose, 1:3 dilution steps, with the top concentration starting at 30 μM (final concentration in assay). After a 96 hour incubation at 37° C., 95% rH, and 5% CO2, a cell-permeant DNA-binding dye that stains only healthy cells (CyQUANT®, Promega) was added to the cells, allowing the quantification of cell viability.
(§4) Cell Media: The NCI-H226 cells were cultured in the following media: RPMI 1640, +10% FBS, +1× GlutaMAX, +10 mM HEPES, +0.5% Pen/Strep. The SW620-KO cells were cultured in the following media: DMEM/F-12, +10% FBS, +1× GlutaMAX, +10 mM HEPES, +0.5% Pen/Strep.
(§5) Reagents: The reagents used are listed below:
(§6) Cell culture: The cells were examined using an inverted microscope to check for health, cell density, etc. To dissociate adherent cells, the monolayer of cells was washed once with pre-warmed PBS. After removing the PBS, 3 ml pre-warmed Accutase was added to a F75 flask, dispersed evenly and the flask was allowed to sit in incubator for ˜4-5 minutes.
(§7) When a single cell suspension was obtained, 7 ml of prewarmed growth media was added and resuspended with the cells. The cell suspension was transferred to a sterile 15 ml conical centrifuge tube, and spun for 5 min at 300×g, RT. The supernatant was discarded and the pellet was resuspended in 10 ml of pre-warmed growth media.
(§8) The total cell count was determined, and 20 μl of the desired cell number was added to each well of a 384 well plate using a Multidrop Combi. The plates were then incubated for 24 hours at 37° C., 95% rH, and 5% CO2.
(§9) Compound treatment: 24 hours after seeding, the cells were treated with compounds.
(§10) A 1:333 dilution of compounds, diluted in DMSO, was made to get a final concentration of 0.3% DMSO per well. To transfer the compounds to the assay plate, 120 nl was shot from Labcyte low dead volume plates to the cell plates containing 20 μl media/well with the ECHO 555 liquid handling system. After treatment, the cells were fed with 20 μl fresh pre-warmed assay media using a Multidrop combi.
(§11) The assay plates were then incubated for 96 h at 37° C., 95% rH, and 5% CO2.
(§12) 96 h after treatment 30 μl of CyQuant® reagent was added to the assay plates using a Multidrop combi in the dark. The plates were then incubated for 1 hour at 37° C., 95% rH and 5% CO2. Thereafter, the assay plates were removed from the incubator and allowed to equilibrate to RT for 30 min in the dark without lid. Finally, they were measured using an EnVision microplate reader with a FITC bottom read program.

[2] = test system: SW620 Yap KO cells; experiment: Viability assay in SW620 Yap KO (Yap independent) cells, CyQUANT; settings: Homo sapiens, SW-620, SW620 YAP and TAZ knocked out (YAP independent), 96 hour incubation
Protocol: as §1, §2, §3, §4, §5, §6, §7, §8, §9, §10, §11, §12

[3] = test system: YAP-TEAD interaction; experiment: SK-HEP-1 reporter assay (8x TEAD responsive elements driving NanoLuc luciferase); settings: Homo sapiens, SK-HEP1, SK-HEP-1 cells, 24 hour incubation
How it was run: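 SK-HEP-1 cells carrying a stably integrated 8× TEAD-element NanoLuc reporter, seeded 24 h before dosing, were treated in duplicate with a 10-point dose series (top 30 μM final, 0.3% DMSO) for 24 h at 37°C, 5% CO2. Luciferase activity read by NanoGlo luminescence; IC50 derived from it.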

[4] = n.d. (x) = not detectable below threshold x
[5] = number, or n.d. (x) = not detectable below threshold x

Row | Structure (SMILES) | IC50 [1] | IC50 [2, 4] | IC50 ([3]; group symbols) | IC50 ([2]; group symbols) | IC50 [3, 5]
1 | Cn1cnc2c1c1sc(C(=O)O)cc1n2-c1ccc(C(F)(F)F)cc1 [Compound 20, 3-methyl-7-[4-(trifluoromethyl)phenyl]-11-thia-3,5,7-triazatricyclo[6.3.0.0^2,6]undeca-1(8),2(6),4,9-tetraene-10-carboxylic acid] | 100 to 1000 nM | > 30000 nM | 10 to 100 nM | – | –
2 | CNC(=O)c1cc2c(s1)c1c(ncn1C)n2-c1ccc(C(F)(F)F)cc1 [Compound 21, N,3-dimethyl-7-[4-(trifluoromethyl)phenyl]-11-thia-3,5,7-triazatricyclo[6.3.0.0^2,6]undeca-1(8),2(6),4,9-tetraene-10-carboxamide] | 100 to 1000 nM | – | 100 to 10000 nM | 1000 to 10000 nM | –
3 | Cc1nc2c3sc(C(=O)O)cc3n(-c3ccc(C(F)(F)F)cc3)c2s1 [Compound 22, 4-methyl-7-[4-(trifluoromethyl)phenyl]-5,11-dithia-3,7-diazatricyclo[6.3.0.0^2,6]undeca-1(8),2(6),3,9-tetraene-10-carboxylic acid] | 100 to 1000 nM | > 30000 nM | 10 to 100 nM | – | –
4 | Cc1nc2c3sc(C(=O)O)cc3n(-c3ccc(OC(F)(F)F)cc3)c2s1 [Compound 25, 4-methyl-7-[4-(trifluoromethoxy)phenyl]-5,11-dithia-3,7-diazatricyclo[6.3.0.0^2,6]undeca-1(8),2(6),3,9-tetraene-10-carboxylic acid] | 100 to 1000 nM | > 30000 nM | 10 to 100 nM | – | –
5 | Cn1nc2c3sc(C(=O)O)cc3n(-c3ccc(OC(F)(F)F)cc3)c2n1 [Compound 27, 4-methyl-7-[4-(trifluoromethoxy)phenyl]-11-thia-3,4,5,7-tetraazatricyclo[6.3.0.0^2,6]undeca-1(8),2,5,9-tetraene-10-carboxylic acid] | 100 to 1000 nM | > 30000 nM | 10 to 100 nM | – | –
6 | Cn1cc2c3sc(C(=O)O)cc3n(C[C@H]3C[C@@H](C(F)(F)F)C3)c2n1 [Compound 36, 10-methyl-7-{[(1s,3s)-3-(trifluoromethyl)cyclobutyl]methyl}-3-thia-7,9,10-triazatricyclo[6.3.0.0^2,6]undeca-1(11),2(6),4,8-tetraene-4-carboxylic acid] | 100 to 1000 nM | > 30000 nM | 100 to 10000 nM | – | –
7 | Cn1cc2c3sc(C(=O)O)cc3n(C[C@H]3C[C@H](C(F)(F)F)C3)c2n1 [Compound 37, 10-methyl-7-{[(1r,3r)-3-(trifluoromethyl)cyclobutyl]methyl}-3-thia-7,9,10-triazatricyclo[6.3.0.0^2,6]undeca-1(11),2(6),4,8-tetraene-4-carboxylic acid] | 1000 to 10000 nM | > 30000 nM | 100 to 10000 nM | – | –
8 | CNC(=O)c1cc2c3cn(C)nc3n(-c3ccc(C(F)(F)F)cn3)c2s1 [Compound 47, N,4-dimethyl-7-[5-(trifluoromethyl)pyridin-2-yl]-9-thia-4,5,7-triazatricyclo[6.3.0.0^2,6]undeca-1(8),2,5,10-tetraene-10-carboxamide] | 1 to 100 nM | – | 10 to 100 nM | 1000 to 10000 nM | –
9 | C[C@H](CO)NC(=O)c1cc2c3cn(C)nc3n(-c3ccc(C(F)(F)F)cn3)c2s1 [Compound 48, N-[(2R)-1-hydroxypropan-2-yl]-4-methyl-7-[5-(trifluoromethyl)pyridin-2-yl]-9-thia-4,5,7-triazatricyclo[6.3.0.0^2,6]undeca-1(8),2,5,10-tetraene-10-carboxamide] | 1 to 100 nM | – | – | 10000 to 30000 nM | > 30000 nM
10 | CNC(=O)c1cc2c3cn(C)nc3n(-c3ccc(OC(F)(F)F)cc3)c2s1 [Compound 49, N,4-dimethyl-7-[4-(trifluoromethoxy)phenyl]-9-thia-4,5,7-triazatricyclo[6.3.0.0^2,6]undeca-1(8),2,5,10-tetraene-10-carboxamide] | 1 to 100 nM | > 3000 nM | 10 to 100 nM | – | –
11 | C[C@H](CO)NC(=O)c1cc2c3cn(C)nc3n(-c3ccc(OC(F)(F)F)cc3)c2s1 [Compound 50, N-[(2R)-1-hydroxypropan-2-yl]-4-methyl-7-[4-(trifluoromethoxy)phenyl]-9-thia-4,5,7-triazatricyclo[6.3.0.0^2,6]undeca-1(8),2,5,10-tetraene-10-carboxamide] | 1 to 100 nM | > 30000 nM | 100 to 10000 nM | – | –

Next, values leading:

Row | IC50 [1] | IC50 [2, 4] | IC50 ([3]; group symbols) | IC50 ([2]; group symbols) | IC50 [3, 5] | Structure (SMILES)
12 | 1 to 100 nM | > 3200 nM | > 10000 nM | – | – | Cn1cc2c3cc(C(=O)NCc4ccncc4)sc3n(-c3ccc(C(F)(F)F)cc3)c2n1 [Compound 31, 4-methyl-N-[(pyridin-4-yl)methyl]-7-[4-(trifluoromethyl)phenyl]-9-thia-4,5,7-triazatricyclo[6.3.0.0^2,6]undeca-1(8),2,5,10-tetraene-10-carboxamide]
13 | 1 to 100 nM | > 3200 nM | 10 to 100 nM | – | – | C[C@H](CO)NC(=O)c1cc2c3cn(C)nc3n(-c3ccc(C(F)(F)F)cc3)c2s1 [Compound 33, N-[(2R)-1-hydroxypropan-2-yl]-4-methyl-7-[4-(trifluoromethyl)phenyl]-9-thia-4,5,7-triazatricyclo[6.3.0.0^2,6]undeca-1(8),2,5,10-tetraene-10-carboxamide]
14 | 1 to 100 nM | > 3200 nM | 10 to 100 nM | – | – | Cn1cc2c3cc(C(=O)N[C@@H](CO)c4ccccn4)sc3n(-c3ccc(C(F)(F)F)cc3)c2n1 [Compound 35, N-[(1R)-2-hydroxy-1-(pyridin-2-yl)ethyl]-4-methyl-7-[4-(trifluoromethyl)phenyl]-9-thia-4,5,7-triazatricyclo[6.3.0.0^2,6]undeca-1(8),2,5,10-tetraene-10-carboxamide]
15 | 1 to 100 nM | > 30000 nM | 10 to 100 nM | – | – | Cn1cc2c3cc(C(=O)O)sc3n(-c3ccc(SC(F)(F)F)cc3)c2n1 [Compound 40, 4-methyl-7-{4-[(trifluoromethyl)sulfanyl]phenyl}-9-thia-4,5,7-triazatricyclo[6.3.0.0^2,6]undeca-1(8),2,5,10-tetraene-10-carboxylic acid]
16 | 1 to 100 nM | > 3000 nM | – | – | > 9500 nM | C[C@H](O)CNC(=O)c1cc2c3cn(C)nc3n(-c3ccc(C(F)(F)F)cc3)c2s1 [Compound 43, N-[(2S)-2-hydroxypropyl]-4-methyl-7-[4-(trifluoromethyl)phenyl]-9-thia-4,5,7-triazatricyclo[6.3.0.0^2,6]undeca-1(8),2,5,10-tetraene-10-carboxamide]
17 | 1 to 100 nM | > 3000 nM | – | – | > 9500 nM | C[C@@H](O)CNC(=O)c1cc2c3cn(C)nc3n(-c3ccc(C(F)(F)F)cc3)c2s1 [Compound 44, N-[(2R)-2-hydroxypropyl]-4-methyl-7-[4-(trifluoromethyl)phenyl]-9-thia-4,5,7-triazatricyclo[6.3.0.0^2,6]undeca-1(8),2,5,10-tetraene-10-carboxamide]
18 | 1 to 100 nM | – | – | 1000 to 10000 nM | > 9500 nM | Cn1cc2c3cc(C(=O)NCc4cccnc4)sc3n(-c3ccc(C(F)(F)F)cc3)c2n1 [Compound 45, 4-methyl-N-[(pyridin-3-yl)methyl]-7-[4-(trifluoromethyl)phenyl]-9-thia-4,5,7-triazatricyclo[6.3.0.0^2,6]undeca-1(8),2,5,10-tetraene-10-carboxamide]
19 | 1 to 100 nM | > 3000 nM | 1 to 10 nM | – | – | CCNC(=O)c1cc2c3cn(C)nc3n(-c3ccc(C(F)(F)F)cc3)c2s1 [Compound 46, N-ethyl-4-methyl-7-[4-(trifluoromethyl)phenyl]-9-thia-4,5,7-triazatricyclo[6.3.0.0^2,6]undeca-1(8),2,5,10-tetraene-10-carboxamide]
